Laboratory results from the NIST ThermoML archive (doi:10.1021/je901067c).

Tests used:
[1] = xn = mol fraction of the nth substance listed; details: 101 kPa, Liquid; for viscosity: Capillary tube (Ostwald / Ubbelohde) method
[2] = refractive index (Na D-line) (dimensionless); xn = mol fraction of the nth substance listed; details: 101 kPa, Liquid, Standard Abbe refractometry

CCC(O)CC [3-pentanol] + CCC(C)=O
Details	mass density, 298.15 K [kg/m3]	mass density, 308.15 K [kg/m3]	mass density, 318.15 K [kg/m3]	refractive index, 298.15 K	refractive index, 308.15 K	refractive index, 318.15 K	viscosity, 298.15 K [mPa·s]	viscosity, 308.15 K [mPa·s]	viscosity, 318.15 K [mPa·s]
[1], x2 = 0	815.79	806.91	797.66	–	–	–	4.625	2.864	1.902
[1], x2 = 0.0843	813.43	804.58	795.034	–	–	–	2.842	1.965	1.382
[1], x2 = 0.1622	811.5	802.6	792.888	–	–	–	2.007	1.476	0.9911
[1], x2 = 0.2428	809.72	800.57	790.723	–	–	–	1.494	1.151	0.7246
[1], x2 = 0.3505	807.45	798.07	788.175	–	–	–	1.084	0.869	0.5197
[1], x2 = 0.4415	805.82	796.23	786.285	–	–	–	0.86	0.717	0.417
[1], x2 = 0.5584	803.92	794.1	784.161	–	–	–	0.677	0.578	0.3306
[1], x2 = 0.6526	802.64	792.64	782.699	–	–	–	0.591	0.506	0.2938
[1], x2 = 0.7399	801.72	791.55	781.619	–	–	–	0.508	0.448	0.2919
[1], x2 = 0.854	800.8	790.31	780.165	–	–	–	0.445	0.396	0.297
[1], x2 = 0.9383	800.16	789.7	779.212	–	–	–	0.407	0.365	0.3106
[2], x2 = 0	–	–	–	1.4047	1.4029	1.3981	–	–	–
[2], x2 = 0.0843	–	–	–	1.4032	1.4012	1.3965	–	–	–
[2], x2 = 0.1622	–	–	–	1.4016	1.3995	1.3949	–	–	–
[2], x2 = 0.2428	–	–	–	1.3999	1.3975	1.3929	–	–	–
[2], x2 = 0.3505	–	–	–	1.3971	1.3944	1.3901	–	–	–
[2], x2 = 0.4415	–	–	–	1.3945	1.3916	1.3873	–	–	–
[2], x2 = 0.5584	–	–	–	1.3908	1.3876	1.3835	–	–	–
[2], x2 = 0.6526	–	–	–	1.3876	1.3841	1.38	–	–	–
[2], x2 = 0.7399	–	–	–	1.3846	1.3806	1.3767	–	–	–
[2], x2 = 0.854	–	–	–	1.3803	1.376	1.372	–	–	–
[2], x2 = 0.9383	–	–	–	1.3773	1.3725	1.3684	–	–	–

CCC(C)=O [butanone] + CCCCCO
Details	mass density, 298.15 K [kg/m3]	mass density, 308.15 K [kg/m3]	mass density, 318.15 K [kg/m3]	refractive index, 298.15 K	refractive index, 308.15 K	refractive index, 318.15 K	viscosity, 298.15 K [mPa·s]	viscosity, 308.15 K [mPa·s]	viscosity, 318.15 K [mPa·s]
[1], x1 = 0.088	809.94	802.26	794.44	–	–	–	2.557	2.011	1.608
[1], x1 = 0.1632	809.15	801.25	793.21	–	–	–	1.997	1.616	1.321
[1], x1 = 0.2427	808.31	800.16	791.89	–	–	–	1.592	1.304	1.097
[1], x1 = 0.3549	807.11	798.62	789.99	–	–	–	1.202	1.009	0.852
[1], x1 = 0.4434	806.15	797.39	788.5	–	–	–	0.983	0.835	0.721
[1], x1 = 0.5597	804.87	795.76	786.5	–	–	–	0.773	0.667	0.585
[1], x1 = 0.6518	803.85	794.44	784.88	–	–	–	0.648	0.57	0.5
[1], x1 = 0.7401	802.85	793.14	783.31	–	–	–	0.554	0.492	0.443
[1], x1 = 0.8477	801.59	791.54	781.36	–	–	–	0.485	0.427	0.381
[1], x1 = 0.9355	800.55	790.21	779.73	–	–	–	0.42	0.38	0.345
[1], x1 = 1	799.76	789.21	778.52	–	–	–	0.391	0.361	0.334
[2], x1 = 0.088	–	–	–	1.4049	1.4014	1.3976	–	–	–
[2], x1 = 0.1632	–	–	–	1.4031	1.3997	1.3957	–	–	–
[2], x1 = 0.2427	–	–	–	1.401	1.3976	1.3937	–	–	–
[2], x1 = 0.3549	–	–	–	1.3979	1.3943	1.3905	–	–	–
[2], x1 = 0.4434	–	–	–	1.3953	1.3914	1.3878	–	–	–
[2], x1 = 0.5597	–	–	–	1.3915	1.3873	1.3838	–	–	–
[2], x1 = 0.6518	–	–	–	1.3883	1.3838	1.3804	–	–	–
[2], x1 = 0.7401	–	–	–	1.3851	1.3804	1.377	–	–	–
[2], x1 = 0.8477	–	–	–	1.381	1.376	1.3724	–	–	–
[2], x1 = 0.9355	–	–	–	1.3776	1.3725	1.3686	–	–	–
[2], x1 = 1	–	–	–	1.375	1.37	1.3657	–	–	–

CCCC(C)O (configuration not stated) [pentan-2-ol] + CCC(C)=O
Details	mass density, 298.15 K [kg/m3]	mass density, 308.15 K [kg/m3]	mass density, 318.15 K [kg/m3]	refractive index, 298.15 K	refractive index, 308.15 K	refractive index, 318.15 K	viscosity, 298.15 K [mPa·s]	viscosity, 308.15 K [mPa·s]	viscosity, 318.15 K [mPa·s]
[1], x2 = 0	805.3	797	788.37	–	–	–	3.478	2.361	1.772
[1], x2 = 0.0824	804	795.54	786.83	–	–	–	2.664	1.778	1.344
[1], x2 = 0.1612	802.99	794.34	785.5	–	–	–	2.066	1.381	1.094
[1], x2 = 0.2401	802.04	793.29	784.32	–	–	–	1.69	1.105	0.897
[1], x2 = 0.3519	800.97	791.97	782.76	–	–	–	1.347	0.865	0.721
[1], x2 = 0.4396	800.31	791.07	781.66	–	–	–	1.131	0.731	0.642
[1], x2 = 0.5608	799.65	790.15	780.47	–	–	–	0.886	0.587	0.514
[1], x2 = 0.6494	799.34	789.63	779.91	–	–	–	0.743	0.518	0.457
[1], x2 = 0.7403	799.2	789.23	779.15	–	–	–	0.623	0.462	0.407
[1], x2 = 0.8491	799.26	789.02	778.67	–	–	–	0.505	0.406	0.366
[1], x2 = 0.9384	799.49	789.09	778.55	–	–	–	0.436	0.371	0.338
[2], x2 = 0	–	–	–	1.4032	1.399	1.395	–	–	–
[2], x2 = 0.0824	–	–	–	1.4014	1.3974	1.3937	–	–	–
[2], x2 = 0.1612	–	–	–	1.3998	1.3959	1.3923	–	–	–
[2], x2 = 0.2401	–	–	–	1.398	1.3941	1.3906	–	–	–
[2], x2 = 0.3519	–	–	–	1.3952	1.3914	1.3877	–	–	–
[2], x2 = 0.4396	–	–	–	1.3929	1.389	1.3852	–	–	–
[2], x2 = 0.5608	–	–	–	1.3895	1.3854	1.3813	–	–	–
[2], x2 = 0.6494	–	–	–	1.3868	1.3826	1.3782	–	–	–
[2], x2 = 0.7403	–	–	–	1.384	1.3796	1.375	–	–	–
[2], x2 = 0.8491	–	–	–	1.3803	1.3757	1.3711	–	–	–
[2], x2 = 0.9384	–	–	–	1.3772	1.3724	1.3679	–	–	–
